According to paper PMC6920136 (Redox Biology, 2019):

Columns and labels:
[1] = target: Duox1 (Homo sapiens, UniProt Q9NRD9); experiment: H2O2 synthesis assay in homogenates of HEK293T cells expressing Duox1/DuoxA1α; format: biochemical
[2] = target: Duox2 (Homo sapiens, UniProt Q9NRD8); experiment: H2O2 synthesis assay in homogenates of HEK293T cells expressing Duox2/DuoxA2; format: biochemical
Sequence of Duox2 (Q9NRD8 26-1548): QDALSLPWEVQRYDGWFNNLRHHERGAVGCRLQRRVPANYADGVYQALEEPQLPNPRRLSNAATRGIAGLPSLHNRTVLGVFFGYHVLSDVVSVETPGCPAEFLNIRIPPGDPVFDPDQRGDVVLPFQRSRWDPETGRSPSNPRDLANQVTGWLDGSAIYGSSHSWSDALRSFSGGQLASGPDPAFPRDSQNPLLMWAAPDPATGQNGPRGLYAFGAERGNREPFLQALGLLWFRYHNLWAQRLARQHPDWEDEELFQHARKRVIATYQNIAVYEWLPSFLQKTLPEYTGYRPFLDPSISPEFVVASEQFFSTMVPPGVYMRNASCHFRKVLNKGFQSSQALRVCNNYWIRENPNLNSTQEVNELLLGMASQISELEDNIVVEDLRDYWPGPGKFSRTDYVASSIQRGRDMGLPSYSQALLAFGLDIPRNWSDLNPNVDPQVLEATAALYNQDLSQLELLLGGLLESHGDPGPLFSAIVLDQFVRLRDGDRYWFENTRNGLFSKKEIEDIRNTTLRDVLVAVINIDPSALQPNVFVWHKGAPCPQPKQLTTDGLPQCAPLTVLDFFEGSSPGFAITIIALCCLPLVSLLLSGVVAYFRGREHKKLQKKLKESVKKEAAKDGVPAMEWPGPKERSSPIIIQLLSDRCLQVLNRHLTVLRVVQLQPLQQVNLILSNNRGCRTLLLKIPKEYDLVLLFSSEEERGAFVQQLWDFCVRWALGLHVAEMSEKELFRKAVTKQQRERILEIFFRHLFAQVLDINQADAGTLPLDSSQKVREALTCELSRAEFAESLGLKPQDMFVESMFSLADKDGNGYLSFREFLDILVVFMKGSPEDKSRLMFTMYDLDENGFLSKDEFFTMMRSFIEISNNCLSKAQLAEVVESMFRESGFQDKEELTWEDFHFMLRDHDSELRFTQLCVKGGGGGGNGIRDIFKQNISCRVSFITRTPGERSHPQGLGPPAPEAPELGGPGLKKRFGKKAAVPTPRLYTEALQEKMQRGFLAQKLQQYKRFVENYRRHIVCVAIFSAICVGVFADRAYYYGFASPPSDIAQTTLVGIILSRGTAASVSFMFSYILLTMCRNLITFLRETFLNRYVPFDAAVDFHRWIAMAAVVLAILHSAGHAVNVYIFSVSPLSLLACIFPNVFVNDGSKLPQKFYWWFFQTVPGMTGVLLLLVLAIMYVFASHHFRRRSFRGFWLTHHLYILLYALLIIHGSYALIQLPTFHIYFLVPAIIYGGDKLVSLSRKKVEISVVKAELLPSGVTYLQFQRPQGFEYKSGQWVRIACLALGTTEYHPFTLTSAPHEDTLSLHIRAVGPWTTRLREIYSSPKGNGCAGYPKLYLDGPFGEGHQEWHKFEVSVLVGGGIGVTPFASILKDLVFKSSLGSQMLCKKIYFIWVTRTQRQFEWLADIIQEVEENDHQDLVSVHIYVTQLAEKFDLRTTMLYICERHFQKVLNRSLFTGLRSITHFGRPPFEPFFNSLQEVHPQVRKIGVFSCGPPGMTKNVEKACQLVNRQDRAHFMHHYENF
Sequence of Duox2 (Q1HG44 whole entry partner): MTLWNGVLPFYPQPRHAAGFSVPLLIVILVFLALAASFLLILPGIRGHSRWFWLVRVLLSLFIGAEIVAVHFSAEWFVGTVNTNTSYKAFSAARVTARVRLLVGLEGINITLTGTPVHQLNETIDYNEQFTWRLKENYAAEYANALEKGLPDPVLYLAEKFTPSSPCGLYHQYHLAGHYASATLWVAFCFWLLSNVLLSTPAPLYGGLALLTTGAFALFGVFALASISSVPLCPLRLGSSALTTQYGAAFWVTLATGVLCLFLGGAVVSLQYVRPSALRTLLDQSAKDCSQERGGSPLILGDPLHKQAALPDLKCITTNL

Sequence of Duox1 (Q9NRD9 22-1551): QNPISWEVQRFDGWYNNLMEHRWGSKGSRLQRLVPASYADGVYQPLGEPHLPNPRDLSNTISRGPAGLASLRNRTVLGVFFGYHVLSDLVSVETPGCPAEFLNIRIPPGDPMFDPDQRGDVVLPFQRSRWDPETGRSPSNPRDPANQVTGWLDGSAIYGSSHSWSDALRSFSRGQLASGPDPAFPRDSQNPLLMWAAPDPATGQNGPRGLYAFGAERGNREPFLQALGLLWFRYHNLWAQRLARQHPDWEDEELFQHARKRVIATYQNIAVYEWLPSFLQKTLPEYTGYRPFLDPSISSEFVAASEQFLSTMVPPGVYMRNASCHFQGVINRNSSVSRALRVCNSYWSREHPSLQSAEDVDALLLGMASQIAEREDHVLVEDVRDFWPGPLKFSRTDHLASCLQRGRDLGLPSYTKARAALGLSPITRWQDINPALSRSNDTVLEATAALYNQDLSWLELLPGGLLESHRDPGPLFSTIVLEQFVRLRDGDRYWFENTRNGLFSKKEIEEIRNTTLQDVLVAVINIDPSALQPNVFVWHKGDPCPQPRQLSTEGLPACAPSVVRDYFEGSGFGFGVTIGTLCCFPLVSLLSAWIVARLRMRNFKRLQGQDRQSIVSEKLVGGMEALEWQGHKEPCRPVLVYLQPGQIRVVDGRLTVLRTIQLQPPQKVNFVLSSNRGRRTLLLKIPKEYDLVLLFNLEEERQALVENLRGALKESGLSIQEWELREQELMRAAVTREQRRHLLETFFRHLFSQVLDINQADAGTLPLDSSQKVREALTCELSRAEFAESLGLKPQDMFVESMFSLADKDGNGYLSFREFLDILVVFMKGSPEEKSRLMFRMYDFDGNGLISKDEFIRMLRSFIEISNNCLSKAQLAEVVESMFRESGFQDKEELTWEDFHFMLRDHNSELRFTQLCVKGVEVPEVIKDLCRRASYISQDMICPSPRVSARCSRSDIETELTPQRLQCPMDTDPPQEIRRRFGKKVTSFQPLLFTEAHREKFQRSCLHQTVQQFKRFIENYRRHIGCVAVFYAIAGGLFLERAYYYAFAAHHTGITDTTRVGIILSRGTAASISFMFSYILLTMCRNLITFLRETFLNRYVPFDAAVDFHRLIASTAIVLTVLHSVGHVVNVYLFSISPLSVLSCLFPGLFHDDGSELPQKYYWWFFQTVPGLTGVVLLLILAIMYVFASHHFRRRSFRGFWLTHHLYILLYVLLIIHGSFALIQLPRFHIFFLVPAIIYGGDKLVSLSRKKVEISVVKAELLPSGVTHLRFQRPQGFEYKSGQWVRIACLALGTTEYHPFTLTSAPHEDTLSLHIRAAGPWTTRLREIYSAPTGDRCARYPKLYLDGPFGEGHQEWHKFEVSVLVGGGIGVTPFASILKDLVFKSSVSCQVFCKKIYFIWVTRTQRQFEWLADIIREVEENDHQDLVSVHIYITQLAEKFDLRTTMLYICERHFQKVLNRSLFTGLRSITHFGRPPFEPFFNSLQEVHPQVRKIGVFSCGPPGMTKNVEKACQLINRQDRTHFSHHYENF
Sequence of Duox1 (Q1HG43 whole entry partner): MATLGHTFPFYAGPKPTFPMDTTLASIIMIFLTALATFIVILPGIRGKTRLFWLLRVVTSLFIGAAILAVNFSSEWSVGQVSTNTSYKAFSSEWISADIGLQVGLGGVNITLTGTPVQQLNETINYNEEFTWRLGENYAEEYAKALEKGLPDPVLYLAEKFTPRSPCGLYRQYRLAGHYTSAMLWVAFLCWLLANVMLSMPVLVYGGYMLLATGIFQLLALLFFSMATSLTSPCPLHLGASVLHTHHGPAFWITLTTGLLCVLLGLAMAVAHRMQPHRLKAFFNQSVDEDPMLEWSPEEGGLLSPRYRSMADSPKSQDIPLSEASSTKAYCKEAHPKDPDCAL

IC50 [1]: 140 µM
IC50 [2]: 110 µM
Structure (SMILES): N=C(N)Nc1nc2ccc(Cl)cc2[nH]1 [ClGBI, 5-chloro-2-guanidinobenzimidazole]
